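Step 1: Grow cells in 96-well plates. Step 2: Expose to compound for 48 hours at 5 concentrations. Step 3: Interpolate endpoints linearly; if unreached, use highest concentration. Here, GI50 denotes the concentration required for 50% inhibition of growth. TGI marks complete inhibition of growth.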
Tests used:
Test in all cases: NCI-60 cell line screen, 48 h
HCT-15 colon = tested on: HCT-15 colon
SF-539 CNS = tested on: SF-539 CNS
NCI-H522 lung = tested on: NCI-H522 lung
T-47D breast = tested on: T-47D breast
SK-MEL-2 melanoma = tested on: SK-MEL-2 melanoma
A498 renal = tested on: A498 renal
SF-268 CNS = tested on: SF-268 CNS
MDA-MB-435 = tested on: MDA-MB-435
IGROV1 ovarian = tested on: IGROV1 ovarian
NCI-H23 lung = tested on: NCI-H23 lung
CAKI-1 renal = tested on: CAKI-1 renal
HCC-2998 colon = tested on: HCC-2998 colon
SW-620 colon = tested on: SW-620 colon
UO-31 renal = tested on: UO-31 renal
RPMI-8226 leukemia = tested on: RPMI-8226 leukemia
ACHN renal = tested on: ACHN renal
HCT-116 colon = tested on: HCT-116 colon
NCI-H226 lung = tested on: NCI-H226 lung
COLO 205 colon = tested on: COLO 205 colon
RXF 393 renal = tested on: RXF 393 renal
NCI-H460 lung = tested on: NCI-H460 lung
786-0 renal = tested on: 786-0 renal
HOP-92 NSCLC = tested on: HOP-92 NSCLC
SK-MEL-5 melanoma = tested on: SK-MEL-5 melanoma
SN12C renal = tested on: SN12C renal
HOP-62 NSCLC = tested on: HOP-62 NSCLC
M14 melanoma = tested on: M14 melanoma
HT29 colon = tested on: HT29 colon
A549 NSCLC = tested on: A549 NSCLC
NCI/ADR-RES ovarian = tested on: NCI/ADR-RES ovarian
SR leukemia = tested on: SR leukemia
UACC-257 melanoma = tested on: UACC-257 melanoma
MALME-3M melanoma = tested on: MALME-3M melanoma
HL-60(TB) leukemia = tested on: HL-60(TB) leukemia
UACC-62 melanoma = tested on: UACC-62 melanoma
SNB-19 CNS = tested on: SNB-19 CNS
MCF7 breast = tested on: MCF7 breast
SK-MEL-28 melanoma = tested on: SK-MEL-28 melanoma
SNB-75 CNS = tested on: SNB-75 CNS
MDA-MB-231 breast = tested on: MDA-MB-231 breast
OVCAR-4 ovarian = tested on: OVCAR-4 ovarian
SF-295 CNS = tested on: SF-295 CNS
TK-10 renal = tested on: TK-10 renal
U251 CNS = tested on: U251 CNS
OVCAR-5 ovarian = tested on: OVCAR-5 ovarian
HS 578T breast = tested on: HS 578T breast
DU-145 prostate = tested on: DU-145 prostate
KM12 colon = tested on: KM12 colon
SK-OV-3 ovarian = tested on: SK-OV-3 ovarian
K-562 leukemia = tested on: K-562 leukemia
PC-3 prostate = tested on: PC-3 prostate
OVCAR-3 ovarian = tested on: OVCAR-3 ovarian
BT-549 breast = tested on: BT-549 breast

## CC(=O)Oc1cc(C(C)C)c(OCCN(C)C)cc1C
HCT-15 colon
  GI50: > 100 µM
  TGI: > 100 µM
SF-539 CNS
  GI50: > 100 µM
  TGI: > 100 µM
NCI-H522 lung
  GI50: > 100 µM
  TGI: > 100 µM
T-47D breast
  GI50: > 100 µM
  TGI: > 100 µM
SK-MEL-2 melanoma
  GI50: > 100 µM
  TGI: > 100 µM
A498 renal
  GI50: > 100 µM
  TGI: > 100 µM
SF-268 CNS
  GI50: > 100 µM
  TGI: > 100 µM
MDA-MB-435
  GI50: > 100 µM
  TGI: > 100 µM
IGROV1 ovarian
  GI50: > 100 µM
  TGI: > 100 µM
NCI-H23 lung
  GI50: > 100 µM
  TGI: > 100 µM
CAKI-1 renal
  GI50: > 100 µM
  TGI: > 100 µM
HCC-2998 colon
  GI50: > 100 µM
  TGI: > 100 µM
SW-620 colon
  GI50: > 100 µM
  TGI: > 100 µM
UO-31 renal
  GI50: > 100 µM
  TGI: > 100 µM
RPMI-8226 leukemia
  GI50: > 100 µM
  TGI: > 100 µM
ACHN renal
  GI50: > 100 µM
  TGI: > 100 µM
HCT-116 colon
  GI50: > 100 µM
  TGI: > 100 µM
NCI-H226 lung
  GI50: > 100 µM
  TGI: > 100 µM
COLO 205 colon
  GI50: > 100 µM
  TGI: > 100 µM
RXF 393 renal
  GI50: > 100 µM
  TGI: > 100 µM
NCI-H460 lung
  GI50: > 100 µM
  TGI: > 100 µM
786-0 renal
  GI50: > 100 µM
  TGI: > 100 µM
HOP-92 NSCLC
  GI50: > 100 µM
  TGI: > 100 µM
SK-MEL-5 melanoma
  GI50: > 100 µM
  TGI: > 100 µM
SN12C renal
  GI50: > 100 µM
  TGI: > 100 µM
HOP-62 NSCLC
  GI50: > 100 µM
  TGI: > 100 µM
M14 melanoma
  GI50: > 100 µM
  TGI: > 100 µM
HT29 colon
  GI50: > 100 µM
  TGI: > 100 µM
A549 NSCLC
  GI50: > 100 µM
  TGI: > 100 µM
NCI/ADR-RES ovarian
  GI50: > 100 µM
  TGI: > 100 µM
SR leukemia
  GI50: > 100 µM
  TGI: > 100 µM
UACC-257 melanoma
  GI50: > 100 µM
  TGI: > 100 µM
MALME-3M melanoma
  GI50: > 100 µM
  TGI: > 100 µM
HL-60(TB) leukemia
  GI50: > 100 µM
  TGI: > 100 µM
UACC-62 melanoma
  GI50: > 100 µM
  TGI: > 100 µM
SNB-19 CNS
  GI50: > 100 µM
  TGI: > 100 µM
MCF7 breast
  GI50: > 100 µM
  TGI: > 100 µM
SK-MEL-28 melanoma
  GI50: > 100 µM
  TGI: > 100 µM
SNB-75 CNS
  GI50: 50.9 µM
  TGI: > 100 µM
MDA-MB-231 breast
  GI50: > 100 µM
  TGI: > 100 µM
OVCAR-4 ovarian
  GI50: > 100 µM
  TGI: > 100 µM
SF-295 CNS
  GI50: > 100 µM
  TGI: > 100 µM
TK-10 renal
  GI50: > 100 µM
  TGI: > 100 µM
U251 CNS
  GI50: > 100 µM
  TGI: > 100 µM
OVCAR-5 ovarian
  GI50: > 100 µM
  TGI: > 100 µM
HS 578T breast
  GI50: > 100 µM
  TGI: > 100 µM
DU-145 prostate
  GI50: > 100 µM
  TGI: > 100 µM
KM12 colon
  GI50: > 100 µM
  TGI: > 100 µM
SK-OV-3 ovarian
  GI50: > 100 µM
  TGI: > 100 µM
K-562 leukemia
  GI50: > 100 µM
  TGI: > 100 µM
PC-3 prostate
  GI50: > 100 µM
  TGI: > 100 µM
OVCAR-3 ovarian
  GI50: > 100 µM
  TGI: > 100 µM
BT-549 breast
  GI50: > 100 µM
  TGI: > 100 µM

Reference: PubChem BioAssay (NCI)
